Results as given in BindingDB's records for patent US9688678 (Abbvie Deutschland, 2017).

Each compound was assayed against T1, Vasopressin V1b receptor (Homo sapiens, UniProt P47901) (assay: Binding Assay). Conditions: pH 7.4; 25 °C.
T1 sequence (P47901 whole entry): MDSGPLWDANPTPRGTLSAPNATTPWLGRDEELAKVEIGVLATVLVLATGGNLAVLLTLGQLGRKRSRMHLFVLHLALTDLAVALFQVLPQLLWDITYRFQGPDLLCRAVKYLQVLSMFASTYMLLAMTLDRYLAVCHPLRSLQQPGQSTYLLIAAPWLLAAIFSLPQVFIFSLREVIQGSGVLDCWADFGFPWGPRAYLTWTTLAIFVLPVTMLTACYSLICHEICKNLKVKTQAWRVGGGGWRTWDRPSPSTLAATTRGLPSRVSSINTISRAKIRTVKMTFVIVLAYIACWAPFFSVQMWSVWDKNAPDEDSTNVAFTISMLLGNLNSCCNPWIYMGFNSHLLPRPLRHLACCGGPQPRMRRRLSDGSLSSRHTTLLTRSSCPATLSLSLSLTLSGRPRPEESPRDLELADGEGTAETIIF
Method: The nonspecific binding was determined with 1 μM AVP (Fluka 94836). All determinations were carried out as duplicate determinations. […] The liquid scintillation measurement took place in a Microbeta TriLux 12 (Wallac).

Row | SMILES | Ki
1 | CCOc1ccc(OC)c(C2(N3CC4(CN(C5CCN(C)CC5)C4)C3)C(=O)N(S(=O)(=O)c3ccc(OC)cc3OC)C3C=CC(C#N)=CC32)c1 (racemic) [US9688678, 2 (+-)-1-(2,4-dimethoxyphenyl)sulfonyl-3-(2-ethoxy-5-methoxy-phenyl)-3-[2-(1-methyl-4-piperidyl)-2,6-diazaspiro[3.3]heptan-6-yl]-2-oxo-indoline-5-carbonitrile] | in the range around 55 nM
2 | CCOc1ccc(OC)c(C2(N3CC4(CN(C5CCN(C)CC5)C4)C3)C(=O)N(S(=O)(=O)c3cccc4cccnc34)C3C=CC(C#N)=CC32)c1 (racemic) [US9688678, 3 (+-)-3-(2-ethoxy-5-methoxy-phenyl)-3-[2-(1-methyl-4-piperidyl)-2,6-diazaspiro[3.3]heptan-6-yl]-2-oxo-1-(8-quinolylsulfonyl)indoline-5-carbonitrile] | in the range around 55 nM
3 | CCOc1ccc(OC)cc1C1(N2CC3(CN(C4CCN(C)CC4)C3)C2)C(=O)N(S(=O)(=O)c2cc(C#N)ccn2)C2C=CC(C#N)=CC21 (racemic) [US9688678, 14 (+-)-1-(4-cyanophenyl)sulfonyl-3-(2-ethoxy-5-methoxy-phenyl)-3-[2-(1-methyl-4-piperidyl)-2,6-diazaspiro[3.3]heptan-6-yl]-2-oxo-indoline-5-carbonitrile] | in the range around 55 nM
4 | CCOc1ccc(OC)cc1C1(N2CC3(CN(C4CCN(C)CC4)C3)C2)C(=O)N(S(=O)(=O)c2cc(F)ccn2)C2C=CC(C#N)=CC21 (racemic) [US9688678, 16 (+-)-3-(2-ethoxy-5-methoxy-phenyl)-1-(4-fluorophenyl)sulfonyl-3-[2-(1-methyl-4-piperidyl)-2,6-diazaspiro[3.3]heptan-6-yl]-2-oxo-indoline-5-carbonitrile] | in the range around 55 nM
5 | CCOc1ccc(OC)cc1C1(N2CC3(CN(N4CCN(C)CC4)C3)C2)C(=O)N(S(=O)(=O)c2ccc(OC)cn2)C2C=CC(C#N)=CC21 (racemic) [US9688678, 17 (+-)-3-(2-ethoxy-5-methoxy-phenyl)-1-[(5-methoxy-2-pyridyl)sulfonyl]-3-[2-(4-methylpiperazin-1-yl)-6-azaspiro[3.3]heptan-6-yl]-2-oxo-indoline-5-carbonitrile] | < 1 nM
6 | CCOc1ccc(OC)cc1C1(N2CC3(CN(N4CCN(C)CC4)C3)C2)C(=O)N(S(=O)(=O)c2ccc(OC)cn2)C2C=CC(C#N)=CC21 (single isomer, unassigned; (+)) [US9688678, 17B (+)-3-(2-ethoxy-5-methoxy-phenyl)-1-[(5-methoxy-2-pyridyl)sulfonyl]-3-[2-(4-methylpiperazin-1-yl)-6-azaspiro[3.3]heptan-6-yl]-2-oxo-indoline-5-carbonitrile] | < 1 nM
7 | COc1ccc(S(=O)(=O)N2C(=O)C(c3cccnc3OC)(N3CC4(CN(C5CCN(C)CC5)C4)C3)C3C=C(C#N)C=CC32)nc1 (stereo not drawn) [US9688678, 9A (+)-3-(2-ethoxy-3-pyridyl)-1-[(5-methoxy-2-pyridyl)sulfonyl]-3-[2-(1-methyl-4-piperidyl)-2,6-diazaspiro[3.3]heptan-6-yl]-2-oxo-indoline-5-carbonitrile] | < 1 nM
8 | CCOc1ccc(OC)c(C2(N3CC4(CN(C5CCN(C6COC6)CC5)C4)C3)C(=O)N(S(=O)(=O)c3ccc(OC)cn3)C3C=CC(C#N)=CC32)c1 (stereo not drawn) [US9688678, 11 (+)-3-(2-ethoxy-5-methoxyphenyl)-1-((5-methoxypyridin-2-yl)sulfonyl)-3-(6-(1-(oxetan-3-yl)piperidin-4-yl)-2,6-diazaspiro[3.3]heptan-2-yl)-2-oxoindoline-5-carbonitrile] | < 1 nM
9 | CCOc1cnc(OCC)c(C2(N3CC4(CN(C5CCN(C)CC5)C4)C3)C(=O)N(S(=O)(=O)c3cc(OC)ccn3)C3C=CC(C#N)=CC32)c1 (stereo not drawn) [US9688678, 12 (+-)-3-(2-ethoxy-3-pyridyl)-1-(4-methoxyphenyl)sulfonyl-3-[2-(1-methyl-4-piperidyl)-2,6-diazaspiro[3.3]heptan-6-yl]-2-oxo-indoline-5-carbonitrile] | in the range around 55 nM
10 | COc1ccc(S(=O)(=O)N2C(=O)C(c3ccccc3OC)(N3CC4(CN(C5CCN(C)CC5)C4)C3)C3C=C(C#N)C=CC32)nc1 (stereo not drawn) [US9688678, 18 (+-)3-(2-methoxyphenyl)-1-[(5-methoxy-2-pyridyl)sulfonyl]-3-[2-(1-methyl-4-piperidyl)-2,6-diazaspiro[3.3]heptan-6-yl]-2-oxo-indoline-5-carbonitrile] | < 1 nM

Second part, the compound after the results:

Row | Ki | SMILES
11 | < 1 nM | CCOc1ccc(OC)cc1C1(N2CC3(CN(C4CCN(C(C)C)CC4)C3)C2)C(=O)N(S(=O)(=O)c2ccc(OC)cn2)C2C=CC(C#N)=CC21 (racemic) [US9688678, 19 (+-)-3-(2-ethoxy-5-methoxy-phenyl)-3-[2-(1-isopropyl-4-piperidyl)-2,6-diazaspiro[3.3]heptan-6-yl]-1-[(5-methoxy-2-pyridyl)sulfonyl]-2-oxo-indoline-5-carbonitrile]
12 | < 1 nM | COc1ccc(S(=O)(=O)N2C(=O)C(c3cc(OC)ccc3OC)(N3CC4(CN(C5CCN(C)CC5)C4)C3)C3C=C(C#N)C=CC32)nc1 (racemic) [US9688678, 21 (+-)-3-(2,5-dimethoxyphenyl)-1-[(5-methoxy-2-pyridyl)sulfonyl]-3-[2-(1-methyl-4-piperidyl)-2,6-diazaspiro[3.3]heptan-6-yl]-2-oxo-indoline-5-carbonitrile]
13 | < 1 nM | COc1ccc(S(=O)(=O)N2C(=O)C(c3ccccc3OC)(N3CC4(CN(C5CCN(C)CC5)C4)C3)C3C=C(C#N)C=CC32)nc1 (stereo not drawn) [US9688678, 18A (+)-3-(2-methoxyphenyl)-1-[(5-methoxy-2-pyridyl)sulfonyl]-3-[2-(1-methyl-4-piperidyl)-2,6-diazaspiro[3.3]heptan-6-yl]-2-oxo-indoline-5-carbonitrile]
14 | in the range around 5.5 nM | CCOc1ccc(OC)cc1C1(N2CC3(CN(C4CCN(C)CC4)C3)C2)C(=O)N(S(=O)(=O)c2ccc(OC)cn2)C2C=C(C#N)C=CC21 (stereo not drawn) [US9688678, 29 (+-)-3-(2-ethoxy-5-methoxy-phenyl)-1-[(5-methoxy-2-pyridyl)sulfonyl]-3-[2-(1-methyl-4-piperidyl)-2,6-diazaspiro[3.3]heptan-6-yl]-2-oxo-indoline-6-carbonitrile]
15 | in the range around 55 nM | CCOc1ccc(OC)cc1[C@]1(N2CC3(CN(C4CCN(C)CC4)C3)C2)C(=O)N(S(=O)(=O)c2cccc(OC)n2)C2C=CC(C#N)=CC21 (stereo partly drawn) [US9688678, 32 (3S)-3-(2-ethoxy-5-methoxy-phenyl)-1-[(6-methoxy-2-pyridyl)sulfonyl]-3-[2-(1-methyl-4-piperidyl)-2,6-diazaspiro[3.3]heptan-6-yl]-2-oxo-indoline-5-carbonitrile]
16 | < 1 nM | CCOc1ccc(OC)cc1[C@]1(N2CC3(CN(C4CCN(C)CC4)C3)C2)C(=O)N(S(=O)(=O)c2ccc(Cl)cn2)C2C=CC(C#N)=CC21 (stereo partly drawn) [US9688678, 34 (3S)-1-[(5-chloro-2-pyridyl)sulfonyl]-3-(2-ethoxy-5-methoxy-phenyl)-3-[2-(1-methyl-4-piperidyl)-2,6-diazaspiro[3.3]heptan-6-yl]-2-oxo-indoline-5-carbonitrile]
